{"source": "patent US9539280B2", "about": "“Cartilage production promoter and prophylactic or therapeutic agent for diseases associated with cartilage damage” (NATIONAL UNIVERSITY CORPORATION TOTTORI UNIVERSITY, priority 2009, dated 2017)", "type_in_all_cases": "in vivo, rabbit", "key": {"[1]": {"assay": "Observation of side effects during fucoidan administration", "conditions": "1 g fucoidan in 50 mL water every day by natural intake, 3 weeks, female white rabbits", "method": "From the day of the operation, initially every day, water (50 mL) in which 1 g of a fucoidan was dissolved were dosed to the rabbits in the fucoidan-administered group by natural intake. Thereafter, water was given to the rabbits to drink freely. This was continued for 3 weeks. Only water was given to the rabbits in the control group."}, "[2]": {"test_system": "glycosaminoglycan", "assay": "Histological observation, staining with alcian blue and image analysis", "method": "(§1) As animal specimens, groups of female white rabbits (weight: about 2.0 kg) were used, the number of the rabbits in each of the groups being 3. The rabbits were habituated to the environment for one week from the time of delivery. Thereafter, 0.1 mg/kg of medetomidine was subcutaneously injected into each of the rabbits, and 25 mg/kg of Ketalar was intramuscularly injected thereto. About each of the rabbit specimens subjected to the injection anesthesia, the left knee joint was shaved, and then disinfected. Thereafter, approaching from the outside of the knee joint, the articular capsule was opened and the knee joint was exposed completely by shifting the patella to the inside. With reference to the experiment of Tamai et al. (Carbohydrate Polymers, 2002, vol. 48, pp. 369-378), three holes of 2 mm in diameter and 4 mm in depth were bored with a hand-drill at the proximal trochlear groove, distal trochlear groove, and the medial trochlear ridge. Thereafter, the sites were sufficiently rinsed, and then the articular capsule was sutured with 3-0PDS (polydioxanone). […]\n(§2) The left femur of each of the damaged models in Example 1 was recovered, and then fixed with a 10% neutral buffered formalin aqueous solution (formaldehyde solution). […] The number of pixels in which a target color tone occupied was measured. […]"}, "[3]": {"test_system": "damaged models (holes bored at proximal trochlear groove, distal trochlear groove and medial trochlear ridge of left knee joint)", "assay": "Macroscopic observation of the degree of healing in cartilage damaged models", "conditions": "after 3 weeks", "method": "As animal specimens, groups of female white rabbits (weight: about 2.0 kg) were used, the number of the rabbits in each of the groups being 3. The rabbits were habituated to the environment for one week from the time of delivery. Thereafter, 0.1 mg/kg of medetomidine was subcutaneously injected into each of the rabbits, and 25 mg/kg of Ketalar was intramuscularly injected thereto. About each of the rabbit specimens subjected to the injection anesthesia, the left knee joint was shaved, and then disinfected. Thereafter, approaching from the outside of the knee joint, the articular capsule was opened and the knee joint was exposed completely by shifting the patella to the inside. With reference to the experiment of Tamai et al. (Carbohydrate Polymers, 2002, vol. 48, pp. 369-378), three holes of 2 mm in diameter and 4 mm in depth were bored with a hand-drill at the proximal trochlear groove, distal trochlear groove, and the medial trochlear ridge. Thereafter, the sites were sufficiently rinsed, and then the articular capsule was sutured with 3-0PDS (polydioxanone). The subcutaneous tissue and the skin were simultaneously sutured with stainless steel wires. […] The degree of healing of each of the damages was scored on the basis of Table 1, and evaluated. […] About each of the damaged model groups, the degree of healing was evaluated on the basis of the criterion in Example 2. […]"}, "[4]": {"test_system": "proteoglycan", "assay": "Histological observation, staining with safranin-O and image analysis", "method": "as §1, §2"}, "[5]": {"conditions": "Example 3, FIG. 6, vs control group, t-test"}}, "note": "Entries after “also recorded” stand apart in the source; their conditions may differ."}
{"substance": "fucoidan", "values": [{"measurement": "signs of side effects", "setting": "[1]", "value": "no signs of side effects"}, {"measurement": "image analysis of alcian blue-stained images (glycosaminoglycan)", "setting": "[2]; [5]", "value": "significantly higher value"}, {"measurement": "alcian blue staining of repaired regions (glycosaminoglycan content)", "setting": "[2]; Example 3, FIGS. 2 and 3, proximal and distal trochlear groove, microscope", "value": "a large amount of glycosaminoglycan was contained"}, {"measurement": "degree of healing (macroscopic observation)", "setting": "[3]; Example 2, FIG. 1, vs control group", "value": "many of the damages were satisfactorily cured; also recorded: good therapeutic results"}, {"measurement": "tissue in the damaged sites", "setting": "[3]; Example 2, control filled with collagen fibers, fibroblasts", "value": "substituted with chondroblasts and cartilage tissues"}, {"measurement": "image analysis of safranin-O-stained images (proteoglycan)", "setting": "[4]; [5]", "value": "significantly higher value"}, {"measurement": "safranin-O staining of repaired regions (proteoglycan content)", "setting": "[4]; Example 3, FIGS. 4 and 5, proximal and distal trochlear groove, microscope", "value": "a large amount of proteoglycan was contained"}]}
